Laboratory results reported in the NIST ThermoML archive (doi:10.1016/j.tca.2015.01.022).
Values joined by “and” are separate entries in the source; they are usually repeats but may differ in a detail not shown here. Equal values may be shown once.

Experiment: molar heat capacity at constant pressure
Settings: 101.33 kPa, Small (less than 1 g) adiabatic calorimetry

CCCCCCCC[n+]1ccn(C)c1.F[B-](F)(F)F [1-methyl-3-octylimidazolium tetrafluoroborate]
molar heat capacity at constant pressure
Settings | Crystal | Glass
5 K | 1.51 J/K/mol | 1.78 J/K/mol
5.07 K | – | 1.855 J/K/mol
5.13 K | 1.622 J/K/mol | –
5.35 K | – | 2.152 J/K/mol
5.41 K | 1.892 J/K/mol | –
5.63 K | – | 2.475 J/K/mol
5.69 K | 2.194 J/K/mol | –
5.92 K | – | 2.835 J/K/mol
5.98 K | 2.524 J/K/mol | –
6.24 K | – | 3.263 J/K/mol
6.3 K | 2.928 J/K/mol | –
6.6 K | – | 3.776 J/K/mol
6.66 K | 3.407 J/K/mol | –
6.96 K | – | 4.337 J/K/mol
7.03 K | 3.928 J/K/mol | –
7.33 K | – | 4.94 J/K/mol
7.4 K | 4.511 J/K/mol | –
7.7 K | – | 5.576 J/K/mol
7.78 K | 5.114 J/K/mol | –
8.08 K | – | 6.258 J/K/mol
8.15 K | 5.768 J/K/mol | –
8.46 K | – | 6.988 J/K/mol
8.54 K | 6.47 J/K/mol | –
8.84 K | – | 7.752 J/K/mol
8.92 K | 7.205 J/K/mol | –
9.23 K | – | 8.549 J/K/mol
9.31 K | 7.974 J/K/mol | –
9.61 K | – | 9.38 J/K/mol
9.7 K | 8.786 J/K/mol | –
10 K | 9.42 J/K/mol | 10.23 J/K/mol and 10.24 J/K/mol
10.1 K | 9.617 J/K/mol | –
10.5 K | – | 11.4 J/K/mol
10.6 K | 10.74 J/K/mol | –
11.11 K | – | 12.83 J/K/mol
11.21 K | 12.14 J/K/mol | –
11.73 K | – | 14.33 J/K/mol
11.82 K | 13.61 J/K/mol | –
12.34 K | – | 15.89 J/K/mol
12.44 K | 15.14 J/K/mol | –
12.96 K | – | 17.5 J/K/mol
13.07 K | 16.72 J/K/mol | –
13.58 K | – | 19.15 J/K/mol
13.69 K | 18.35 J/K/mol | –
14.2 K | – | 20.8 J/K/mol
14.32 K | 20 J/K/mol | –
14.83 K | – | 22.52 J/K/mol
14.96 K | 21.77 J/K/mol | –
15 K | 21.91 J/K/mol | 23.07 J/K/mol
15.57 K | – | 24.74 J/K/mol
15.71 K | 23.92 J/K/mol | –
16.43 K | – | 27.33 J/K/mol
16.57 K | 26.44 J/K/mol | –
17.29 K | – | 29.78 J/K/mol
17.43 K | 28.91 J/K/mol | –
18.15 K | – | 32.35 J/K/mol
18.3 K | 31.39 J/K/mol | –
19.01 K | – | 34.88 J/K/mol
19.17 K | 33.9 J/K/mol | –
19.88 K | – | 37.39 J/K/mol
20 K | 36.32 J/K/mol | 37.79 J/K/mol
20.05 K | 36.43 J/K/mol | –
21.09 K | – | 41.05 J/K/mol
21.26 K | 40.04 J/K/mol | –
22.65 K | – | 45.73 J/K/mol
22.82 K | 44.72 J/K/mol | –
24.21 K | – | 50.47 J/K/mol
24.39 K | 49.42 J/K/mol | –
25 K | 51.22 J/K/mol | 52.78 J/K/mol
25.78 K | – | 55.12 J/K/mol
25.97 K | 54.13 J/K/mol | –
27.35 K | – | 59.68 J/K/mol
27.55 K | 58.67 J/K/mol | –
28.87 K | – | 64.05 J/K/mol
29.08 K | 63.06 J/K/mol | –
30 K | 65.66 J/K/mol | 67.29 J/K/mol
30.42 K | – | 68.44 J/K/mol
30.66 K | 67.49 J/K/mol | –
32.16 K | – | 73.29 J/K/mol
32.42 K | 72.33 J/K/mol | –
34.07 K | – | 78.36 J/K/mol
34.34 K | 77.4 J/K/mol | –
35 K | 79.1 J/K/mol | 80.71 J/K/mol
35.98 K | – | 83.21 J/K/mol
36.27 K | 82.31 J/K/mol | –
37.9 K | – | 87.91 J/K/mol
38.19 K | 87.1 J/K/mol | –
39.82 K | – | 92.51 J/K/mol
40 K | 91.48 J/K/mol | 92.99 J/K/mol
40.12 K | 91.75 J/K/mol | –
41.83 K | – | 97.3 J/K/mol
42.14 K | 96.59 J/K/mol | –
43.94 K | – | 102.2 J/K/mol
44.27 K | 101.5 J/K/mol | –
45 K | 103.2 J/K/mol | 104.6 J/K/mol
46.06 K | – | 107 J/K/mol
46.4 K | 106.3 J/K/mol | –
48.18 K | – | 111.7 J/K/mol
48.53 K | 111 J/K/mol | –
50 K | 114.1 J/K/mol | 115.6 J/K/mol
50.3 K | – | 116.2 J/K/mol
50.66 K | 115.5 J/K/mol | –
52.42 K | – | 120.6 J/K/mol
52.79 K | 119.8 J/K/mol | –
54.54 K | – | 124.8 J/K/mol
54.93 K | 124 J/K/mol | –
56.66 K | – | 128.7 J/K/mol
57.07 K | 128 J/K/mol | –
58.79 K | – | 132.7 J/K/mol
59.21 K | 131.9 J/K/mol | –
60 K | 133.3 J/K/mol | 135 J/K/mol
60.93 K | – | 136.6 J/K/mol
61.36 K | 135.7 J/K/mol | –
63.07 K | – | 140.4 J/K/mol
63.51 K | 139.5 J/K/mol | –
65.21 K | – | 144.2 J/K/mol
65.66 K | 143 J/K/mol | –
67.34 K | – | 147.9 J/K/mol
67.81 K | 146.6 J/K/mol | –
69.48 K | – | 151.6 J/K/mol
69.96 K | 150.1 J/K/mol | –
70 K | 150.1 J/K/mol | 152.5 J/K/mol
71.72 K | – | 155.5 J/K/mol
72.22 K | 153.7 J/K/mol | –
74.07 K | – | 159.5 J/K/mol
74.59 K | 157.4 J/K/mol | –
76.42 K | – | 163.4 J/K/mol
76.96 K | 161 J/K/mol | –
78.77 K | – | 167.3 J/K/mol
79.33 K | 164.5 J/K/mol | –
79.7 K | 165.1 J/K/mol | –
80 K | 165.4 J/K/mol | 169.5 J/K/mol
80.09 K | 165.7 J/K/mol | –
80.17 K | – | 169.7 J/K/mol
81.13 K | – | 171.2 J/K/mol
81.61 K | 167.8 J/K/mol | –
81.71 K | 167.9 J/K/mol | –
81.87 K | 168.2 J/K/mol | –
81.93 K | – | 172.6 J/K/mol
83.39 K | 170.3 J/K/mol | –
83.49 K | – | 175 J/K/mol
83.65 K | 170.6 J/K/mol | –
83.69 K | – | 175.5 J/K/mol
84.09 K | 171.2 J/K/mol | –
85.19 K | 172.7 J/K/mol | –
85.45 K | 173.2 J/K/mol | –
85.46 K | – | 178.2 J/K/mol
87 K | 175.2 J/K/mol | –
87.24 K | – | 181 J/K/mol
87.26 K | 175.7 J/K/mol | –
88.81 K | 177.8 J/K/mol | –
89.03 K | – | 183.9 J/K/mol
89.08 K | 178.2 J/K/mol | –
90 K | 179.5 J/K/mol | 185.3 J/K/mol
90.64 K | 180.3 J/K/mol | –
90.83 K | – | 186.6 J/K/mol
90.9 K | 180.7 J/K/mol | –
92.07 K | – | 188.5 J/K/mol
92.47 K | 182.7 J/K/mol | –
92.64 K | – | 189.3 J/K/mol
92.74 K | 183.1 J/K/mol | –
93.91 K | – | 191.2 J/K/mol
94.31 K | 185.2 J/K/mol | –
94.58 K | 185.6 J/K/mol | –
95.76 K | – | 193.9 J/K/mol
96.17 K | 187.6 J/K/mol | –
96.43 K | 187.9 J/K/mol | –
97.6 K | – | 196.8 J/K/mol
98.02 K | 190.1 J/K/mol | –
98.29 K | 190.4 J/K/mol | –
99.45 K | – | 199.4 J/K/mol
99.89 K | 192.4 J/K/mol | –
100 K | 192.5 J/K/mol | 200.2 J/K/mol
100.16 K | 192.7 J/K/mol | –
101.31 K | – | 202.1 J/K/mol
101.76 K | 194.8 J/K/mol | –
102.03 K | 195.1 J/K/mol | –
103.16 K | – | 204.8 J/K/mol
103.64 K | 197.2 J/K/mol | –
103.91 K | 197.5 J/K/mol | –
105.01 K | – | 207.5 J/K/mol
105.53 K | 199.4 J/K/mol | –
105.8 K | 199.8 J/K/mol | –
106.87 K | – | 210.2 J/K/mol
107.42 K | 201.7 J/K/mol | –
107.69 K | 202.1 J/K/mol | –
108.73 K | – | 212.9 J/K/mol
109.32 K | 204.1 J/K/mol | –
109.58 K | 204.4 J/K/mol | –
110 K | 204.9 J/K/mol | 214.7 J/K/mol
110.6 K | – | 215.5 J/K/mol
111.22 K | 206.4 J/K/mol | –
111.49 K | 206.7 J/K/mol | –
112.46 K | – | 218.2 J/K/mol
113.12 K | 208.7 J/K/mol | –
113.39 K | 209 J/K/mol | –
114.33 K | – | 220.8 J/K/mol
115.03 K | 210.9 J/K/mol | –
115.3 K | 211.2 J/K/mol | –
116.2 K | – | 223.4 J/K/mol
116.94 K | 213.1 J/K/mol | –
117.21 K | 213.4 J/K/mol | –
118.07 K | – | 226.1 J/K/mol
118.86 K | 215.4 J/K/mol | –
119.13 K | 215.7 J/K/mol | –
119.94 K | – | 228.8 J/K/mol
120 K | 216.7 J/K/mol | 229 J/K/mol
120.78 K | 217.6 J/K/mol | –
121.05 K | 218 J/K/mol | –
121.81 K | – | 231.5 J/K/mol
122.7 K | 219.9 J/K/mol | –
122.97 K | 220.2 J/K/mol | –
123.69 K | – | 234.2 J/K/mol
124.63 K | 222.1 J/K/mol | –
124.9 K | 222.4 J/K/mol | –
125.57 K | – | 237 J/K/mol
126.55 K | 224.3 J/K/mol | –
126.83 K | 224.6 J/K/mol | –
127.44 K | – | 239.7 J/K/mol
128.49 K | 226.5 J/K/mol | –
128.76 K | 226.8 J/K/mol | –
129.32 K | – | 242.4 J/K/mol
130 K | 228.2 J/K/mol | 243.4 J/K/mol
130.42 K | 228.7 J/K/mol | –
130.69 K | 229 J/K/mol | –
131.2 K | – | 245.1 J/K/mol
132.35 K | 230.9 J/K/mol | –
132.62 K | 231.1 J/K/mol | –
133.08 K | – | 248 J/K/mol
134.29 K | 233.1 J/K/mol | –
134.56 K | 233.4 J/K/mol | –
134.97 K | – | 250.8 J/K/mol
136.23 K | 235.3 J/K/mol | –
136.5 K | 235.6 J/K/mol | –
136.86 K | – | 253.6 J/K/mol
138.16 K | 237.5 J/K/mol | –
138.44 K | 237.8 J/K/mol | –
138.74 K | – | 256.4 J/K/mol
140 K | 239.7 J/K/mol | 258.2 J/K/mol
140.11 K | 239.7 J/K/mol | –
140.38 K | 240 J/K/mol | –
140.63 K | – | 259.2 J/K/mol
142.05 K | 242 J/K/mol | –
142.32 K | 242.3 J/K/mol | –
142.52 K | – | 262 J/K/mol
143.99 K | 244.3 J/K/mol | –
144.26 K | 244.6 J/K/mol | –
144.42 K | – | 264.9 J/K/mol
145.93 K | 246.5 J/K/mol | –
146.2 K | 246.8 J/K/mol | –
146.31 K | – | 267.8 J/K/mol
147.87 K | 248.8 J/K/mol | –
148.14 K | 249 J/K/mol | –
